Molecular target: T1, human RORγ-LBD (Homo sapiens, UniProt P51449)
T1 construct: made in house; host or cells: E. coli (BL-21)
T1 sequence (P51449 262-518): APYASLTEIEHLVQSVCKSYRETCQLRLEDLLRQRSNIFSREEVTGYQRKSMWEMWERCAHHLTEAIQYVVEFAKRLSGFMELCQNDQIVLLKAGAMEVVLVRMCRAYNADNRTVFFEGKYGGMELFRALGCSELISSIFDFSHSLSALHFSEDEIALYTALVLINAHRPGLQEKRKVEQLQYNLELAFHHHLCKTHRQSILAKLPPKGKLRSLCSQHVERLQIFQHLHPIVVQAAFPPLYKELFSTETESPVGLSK
Assay: ROR gamma coactivator peptide recruitment Alphascreen assay (RORγ-LBD binding to GRIP1 coactivator peptide)
Type: biochemical
Details: 5 nM human RORγ-LBD, 30 nM 7-β-hydroxycholesterol, 50 nM biotinylated GRIP1 coactivator peptide, overnight incubation at room temperature; read-out: result (pIC50, RORγ coactivator peptide recruitment Alphascreen assay) (converted)
Method in brief: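 His/Flag-tagged human RORγ-LBD (aa 262-518, E. coli-expressed, 5 nM) with agonist 7-β-hydroxycholesterol (30 nM) and biotinylated GRIP1 LXXLL peptide (50 nM) in HEPES pH 7.4 buffer, 2.5% DMSO. Compound 1-in-2 dilutions; Alphascreen bead signal read after overnight incubation at room temperature; pIC50 calculated.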

SMILES	IC50
COc1cccc(F)c1C(=O)CN(C(=O)c1cnn([C@H]2CC[C@](C)(C(=O)O)CC2)c1C(F)(F)F)C1CCC(C)(C)CC1 [Example 607, trans-4-(4-((4,4-dimethylcyclohexyl)(2-(2-fluoro-6-methoxyphenyl)-2-oxoethyl)carbamoyl)-5-(trifluoromethyl)-1H-pyrazol-1-yl)-1-methylcyclohexanecarboxylic acid]	105 nM
Cc1cc(Cl)c(C(=O)CN(C(=O)c2cnn([C@H]3CC[C@](C)(C(=O)O)CC3)c2C(F)(F)F)C2CCC(C)(C)CC2)c(Cl)n1 [Example 732, trans-4-(4-((2-(2,4-dichloro-6-methyl-3-pyridinyl)-2-oxoethyl)(4,4-dimethylcyclohexyl)carbamoyl)-5-(trifluoromethyl)-1H-pyrazol-1-yl)-1-methylcyclohexanecarboxylic acid]	9.12 nM
Cc1cc(Cl)c(C(=O)CN(CC2(C)CCCCC2)C(=O)c2cnn([C@H]3CC[C@](C)(C(=O)O)CC3)c2C(F)(F)F)c(Cl)c1 [Example 571, trans-4-(4-((2-(2,6-dichloro-4-methylphenyl)-2-oxoethyl)((1-methylcyclohexyl)methyl)carbamoyl)-5-(trifluoromethyl)-1H-pyrazol-1-yl)-1-methylcyclohexanecarboxylic acid]	1.26 nM
CC(C)(C)CN(C[C@H](O)c1c(Cl)cccc1Cl)C(=O)c1cnn([C@H]2CC[C@H](C(=O)O)CC2)c1C(F)(F)F [Example 573, trans-4-(4-(((2R)-2-(2,6-dichlorophenyl)-2-hydroxyethyl)(2,2-dimethylpropyl)carbamoyl)-5-(trifluoromethyl)-1H-pyrazol-1-yl)cyclohexanecarboxylic acid]	79.4 nM
O=C(c1cnn([C@H]2CC[C@@H](C(=O)O)CC2)c1C(F)(F)F)N(CCc1c(Cl)cncc1Cl)[C@@H]1CCC12CCC2 [Example 621, cis-4-(4-((2-(3,5-dichloro-4-pyridinyl)ethyl)((1R)-spiro[3.3]hept-1-yl)carbamoyl)-5-(trifluoromethyl)-1H-pyrazol-1-yl)cyclohexanecarboxylic acid]	302 nM
Cc1cc(Cl)c(C(=O)CN(CC2CCCCC2)C(=O)c2cnn([C@H]3CC[C@](C)(C(=O)O)CC3)c2C(F)(F)F)c(Cl)c1 [Example 533, trans-4-(4-((cyclohexylmethyl)(2-(2,6-dichloro-4-methylphenyl)-2-oxoethyl)carbamoyl)-5-(trifluoromethyl)-1H-pyrazol-1-yl)-1-methylcyclohexanecarboxylic acid]	1.48 nM
C[C@]1(C(=O)O)CC[C@H](n2ncc(C(=O)N3CC4(CC=CC4)C[C@@H]3Cc3c(Cl)cncc3Cl)c2C(F)(F)F)CC1 [Example 576, trans-4-(4-(((3R)-3-((3,5-dichloro-4-pyridinyl)methyl)-2-azaspiro[4.4]non-7-en-2-yl)carbonyl)-5-(trifluoromethyl)-1H-pyrazol-1-yl)-1-methylcyclohexanecarboxylic acid]	34.7 nM
CC1(C)C[C@H](Cc2c(Cl)cncc2Cl)N(C(=O)c2cnn([C@H]3CC[C@](C)(C(=O)O)CC3)c2C(F)(F)F)C1 [Example 688]	110 nM
CC1(C)[C@@H]2C[C@H](N(CC(=O)c3c(Cl)cccc3Cl)C(=O)c3cnn([C@H]4CC[C@H](C(=O)O)CC4)c3C(F)(F)F)C[C@@H]21 [Example 610, cis-4-(4-((2-(2,6-dichlorophenyl)-2-oxoethyl)((1R,3r,5S)-6,6-dimethylbicyclo[3.1.0]hex-3-yl)carbamoyl)-5-(trifluoromethyl)-1H-pyrazol-1-yl)cyclohexanecarboxylic acid]	12.3 nM
CC1(C)CC[C@@H](CN(CC(=O)c2c(Cl)cccc2Cl)C(=O)c2cnn([C@H]3CC[C@](C)(C(=O)O)CC3)c2C(F)(F)F)O1 [Example 838, trans-4-(4-((2-(2,6-dichlorophenyl)-2-oxoethyl)(((2S)-5,5-dimethyltetrahydro-2-furanyl)methyl)carbamoyl)-5-(trifluoromethyl)-1H-pyrazol-1-yl)-1-methylcyclohexanecarboxylic acid]	13.8 nM
CC1(CN(CC(=O)c2c(Cl)cccc2Cl)C(=O)c2cnn([C@H]3CC[C@](C)(C(=O)O)CC3)c2C(F)(F)F)CC1 [Example 759, trans-4-(4-((2-(2,6-dichlorophenyl)-2-oxoethyl)((1-methylcyclopropyl)methyl)carbamoyl)-5-(trifluoromethyl)-1H-pyrazol-1-yl)-1-methylcyclohexanecarboxylic acid]	3.72 nM
Cc1cc(Cl)c(C(=O)CN(C[C@@H]2CC2(C)C)C(=O)c2cnn([C@H]3CC[C@](C)(C(=O)O)CC3)c2C(F)(F)F)c(Cl)c1 [Example 745, trans-4-(4-((2-(2,6-dichloro-4-methylphenyl)-2-oxoethyl)(((1R)-2,2-dimethylcyclopropyl)methyl)carbamoyl)-5-(trifluoromethyl)-1H-pyrazol-1-yl)-1-methylcyclohexanecarboxylic acid]	1 nM
Cc1cc(Cl)c(C(=O)CN(CCC2CC2)C(=O)c2cnn([C@H]3CC[C@](C)(C(=O)O)CC3)c2C(F)(F)F)c(Cl)c1 [Example 777, trans-4-(4-((2-cyclopropylethyl)(2-(2,6-dichloro-4-methylphenyl)-2-oxoethyl)carbamoyl)-5-(trifluoromethyl)-1H-pyrazol-1-yl)-1-methylcyclohexanecarboxylic acid]	4.27 nM
Cc1cc(Cl)c(C(=O)CN(C[C@H]2CC(C)(C)O2)C(=O)c2cnn([C@H]3CC[C@](C)(C(=O)O)CC3)c2C(F)(F)F)c(Cl)c1 [Example 724, trans-4-(4-((2-(2,6-dichloro-4-methylphenyl)-2-oxoethyl)(((2R)-4,4-dimethyl-2-oxetanyl)methyl)carbamoyl)-5-(trifluoromethyl)-1H-pyrazol-1-yl)-1-methylcyclohexanecarboxylic acid]	6.03 nM
C[C@]1(C(=O)O)CC[C@H](n2ncc(C(=O)N(CC(=O)c3c(Cl)cc(F)cc3Cl)CC3CCCCC3)c2C(F)(F)F)CC1 [Example 664, trans-4-(4-((cyclohexylmethyl)(2-(2,6-dichloro-4-fluorophenyl)-2-oxoethyl)carbamoyl)-5-(trifluoromethyl)-1H-pyrazol-1-yl)-1-methylcyclohexanecarboxylic acid]	1.45 nM
Cc1cc(Cl)c(C(=O)CN(CC2CC3(CC3)C2)C(=O)c2cnn([C@H]3CC[C@](C)(C(=O)O)CC3)c2C(F)(F)F)c(Cl)c1 [Example 583, trans-4-(4-((2-(2,6-dichloro-4-methylphenyl)-2-oxoethyl)(spiro[2.3]hex-5-ylmethyl)carbamoyl)-5-(trifluoromethyl)-1H-pyrazol-1-yl)-1-methylcyclohexanecarboxylic acid]	2.4 nM

Results, then the molecule that gave them:

IC50	SMILES
3.98 nM	C[C@]1(C(=O)O)CC[C@H](n2ncc(C(=O)N(CC(=O)c3c(Cl)cc(F)cc3Cl)CC3CCC3)c2C(F)(F)F)CC1 [Example 694, trans-4-(4-((cyclobutylmethyl)(2-(2,6-dichloro-4-fluorophenyl)-2-oxoethyl)carbamoyl)-5-(trifluoromethyl)-1H-pyrazol-1-yl)-1-methylcyclohexanecarboxylic acid]
28.8 nM	CC1(CN(CC(=O)c2c(Cl)cncc2Cl)C(=O)c2cnn([C@@H]3CC[C@@H](C(=O)O)C(C)(C)C3)c2C(F)(F)F)CCC1 [Example 824, (1R,4R)-4-(4-((2-(3,5-dichloro-4-pyridinyl)-2-oxoethyl)((1-methylcyclobutyl)methyl)carbamoyl)-5-(trifluoromethyl)-1H-pyrazol-1-yl)-2,2-dimethylcyclohexanecarboxylic acid]
9.33 nM	Cc1cc(Cl)c(C(=O)CN(CC2(F)CCCC2)C(=O)c2cnn([C@H]3CC[C@](C)(C(=O)O)CC3)c2C(F)(F)F)c(Cl)n1 [Example 751, trans-4-(4-((2-(2,4-dichloro-6-methyl-3-pyridinyl)-2-oxoethyl)((1-fluorocyclopentyl)methyl)carbamoyl)-5-(trifluoromethyl)-1H-pyrazol-1-yl)-1-methylcyclohexanecarboxylic acid]
3.09 nM	C[C@@H]1C[C@@H](n2ncc(C(=O)N(CC(=O)c3c(Cl)cncc3Cl)CC3(F)CCCC3)c2C(F)(F)F)CC[C@@H]1C(=O)O [Example 810, (1S,2R,4S)-4-(4-((2-(3,5-dichloro-4-pyridinyl)-2-oxoethyl)((1-fluorocyclopentyl)methyl)carbamoyl)-5-(trifluoromethyl)-1H-pyrazol-1-yl)-2-methylcyclohexanecarboxylic acid]
5.75 nM	C[C@@H]1C[C@@H](n2ncc(C(=O)N(CC(=O)c3c(Cl)cncc3Cl)CC(C)(C)C)c2C(F)(F)F)CC[C@@H]1C(=O)O [Example 739]
18.2 nM	Cc1cc(Cl)c(C(=O)CN(CC2CC3(CC3)C2)C(=O)c2cnn([C@H]3CC[C@@H](C(=O)O)CC3)c2C(F)(F)F)c(Cl)c1 [Example 565, cis-4-(4-((2-(2,6-dichloro-4-methylphenyl)-2-oxoethyl)(spiro[2.3]hex-5-ylmethyl)carbamoyl)-5-(trifluoromethyl)-1H-pyrazol-1-yl)cyclohexanecarboxylic acid]
123 nM	COc1cccc(F)c1C(=O)CN(CC1(F)CCCC1)C(=O)c1cnn([C@H]2CC[C@](C)(C(=O)O)CC2)c1C(F)(F)F [Example 608, trans-4-(4-(((1-fluorocyclopentyl)methyl)(2-(2-fluoro-6-methoxyphenyl)-2-oxoethyl)carbamoyl)-5-(trifluoromethyl)-1H-pyrazol-1-yl)-1-methylcyclohexanecarboxylic acid]

— patent US9365522B2, “Pyrazole amide derivative” (AMGEN INC., priority 2015, dated 2016)
